Legend:
Type in all cases: physicochemical
[1] = Stability of active ingredients in real time study (19 months ambient); conditions: composition of Example-2
Text: Stability of Active Ingredients Observed in Real Time Study
The composition prepared in Example-2 according to the process disclosed in the present invention is kept for real time study to observe degradation pattern of active ingredients. The composition was kept for 19 months in ambient conditions. Acetamiprid and Acephate found to be very stable with 3.5% and 2.31% degradation respectively. This resulted into an overall stable agrochemical composition.

[2] = Comparative study of compositions with end-capped vs non-end capped EO/PO block polymer (7 and 14 days AHS)
Procedure: Comparative Study of the Compositions with EO/PO Block Copolymer End-Capped with Methyl Group and Non-End Capped EO/PO Block Polymer
The composition described in Example-1 (having EO/PO block copolymer end-capped with methyl group) prepared according to the process disclosed in the present invention was tested against the composition described in Example-3 (having non-alkyl end-capped EO/PO block copolymer). The objective of study was to determine the effect EO/PO block copolymer end-capped with alkyl group in preventing degradation of active ingredients and to impart overall stability to the composition.

[3] = Stability study of active ingredients in various storage conditions (unpacked / water soluble pouch); conditions: composition of Example-1; for % Degradation: 14 days AHS at 54° C. vs ambient; for 14 D AHS / AMB: content of active; for 14 D AHS: 14 days AHS at 54° C.; for AMB: ambient
Procedure: Stability Study of Active Ingredients in Various Storage Conditions
The composition described in Example-1 prepared according to the process disclosed in the present invention was tested to determine the stability of active ingredients when subjected to various storage conditions. Degradation of active ingredients was calculated at ambient conditions and in 14 days AHS at 54° C. for the composition kept as unpacked and as packed in water soluble pouch. Acetamiprid and Acephate both found to be stable in unpacked as well as when packed in the water soluble pouch.

[4] = Study of chloronicotinyl compositions with and without EO/PO block copolymer end-capped with methyl group (7 and 14 days AHS)
Procedure: Study of Chloronicotinyl Compositions Having EO/PO Block Copolymer End-Capped with Methyl Group and without Having EO/PO Block Polymer End-Capped with Methyl Group
The composition described in Example-4 (having EO/PO block copolymer end-capped with methyl group) prepared according to the process disclosed in the present invention was tested against the composition described in Example-7 (having no EO/PO block copolymer). The objective of study was to determine the effect of EO/PO block copolymer end-capped with alkyl group on chloronicotinyl compounds in preventing degradation of the compositions as well as the overall stability to the compositions.

[5] = 19 months in ambient conditions

Question: Which degradation ([1]; 19 Month Real Time) does the source give for `COP(=O)(NC(C)=O)SC` (centres unmarked) [Acephate, N-(Methoxy-methylsulfanylphosphoryl) acetamide] here?
Answer: Its degradation is 3.50.

Question: And the degradation [1, 5]?
Answer: The degradation was 2.31%.

Question: And the “stability of active (in words)” value [1, 5]?
Answer: The value was “very stable”.

Question: And the “19 Month Real Time” value ([1]; content of active, 19 months in ambient conditions)?
Answer: Its value is 85.03.

Question: And the Ambient ([1]; content of active, start)?
Answer: Its Ambient is 88.11.

Question: And the Degradation observed ([2]; 7 days AHS, active in composition comprising EO/PO block copolymer end-capped with methyl group (Example-1))?
Answer: Its Degradation observed is 0.64%.

Question: And the Degradation observed ([2]; 7 days AHS, active in composition comprising non end-capped EO/PO block copolymer (Example-3))?
Answer: Its Degradation observed is 1.5%.

Question: What about the Degradation observed ([2]; 14 days AHS, active in composition comprising EO/PO block copolymer end-capped with methyl group (Example-1)) of the same molecule?
Answer: Its Degradation observed is 1.02%.

Question: And the Degradation observed ([2]; 14 days AHS, active in composition comprising non end-capped EO/PO block copolymer (Example-3))?
Answer: Its Degradation observed is 1.92%.

Question: What about the “% Degradation” value ([3]; Packed in Water Soluble Pouch) of the same molecule?
Answer: The value was 1.29%.

Question: What about the “% Degradation” value ([3]; Without Packing) of the same molecule?
Answer: Its value is 0.75%.

Question: And the “stability of active (in words)” value ([3]; unpacked as well as packed in the water soluble pouch)?
Answer: The value was “stable”.

Question: And the “14 D AHS” value ([3]; Packed in Water Soluble Pouch)?
Answer: The value was 87.13.

Question: What about the “14 D AHS” value ([3]; Without Packing) of the same molecule?
Answer: Its value is 87.81.

Question: What about the AMB ([3]; Packed in Water Soluble Pouch) of the same molecule?
Answer: Its AMB is 88.59.

Question: And the AMB ([3]; Without Packing)?
Answer: Its AMB is 88.59.

Question: For `N#C/N=C1\SCCN1Cc1ccc(Cl)nc1` [Thiacloprid], which Degradation observed ([4]; 7 days AHS, active in composition comprising EO/PO block copolymer end-capped with methyl group (Example-4)) is on record?
Answer: Its Degradation observed is 0.58%.

Question: What about the Degradation observed ([4]; 7 days AHS, active in composition prepared without using end-capped EO/PO block copolymer (Example-7)) of the same molecule?
Answer: Its Degradation observed is 5.1%.

Question: And the Degradation observed ([4]; 14 days AHS, active in composition comprising EO/PO block copolymer end-capped with methyl group (Example-4))?
Answer: Its Degradation observed is 0.93%.

Question: What about the Degradation observed ([4]; 14 days AHS, active in composition prepared without using end-capped EO/PO block copolymer (Example-7)) of the same molecule?
Answer: Its Degradation observed is 7.91%.
